In patent US20250145608A1, “KRAS DEGRADING COMPOUNDS COMPRISING ANNULATED 2-AMINO-3-CYANO THIOPHENES” (Boehringer Ingelheim Int'l GmbH Corp., priority 2021, published 2025):
pIC50: −log10 of the molar value. Like-named read-outs stand apart in the source and are kept apart here.

Assays:
Assay type in all cases: cell-based
KRAS(G12D) = biological target: T1, KRAS(G12D) (Homo sapiens, UniProt P01116, G12D); test: HiBit degradation assay in GP5d-HiBit-KRAS(G12D) cells (18 h; DC50, Dmax)
T1 construct: introduced immediately downstream of the initiating Methionine codon of the endogenous KRAS locus; host or cells: GP5d-HiBit-KRAS(G12D), a CRISPR knock-in at the endogenous locus
Outline: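 GP5d cells carry an endogenous N-terminal HiBit tag on KRAS(G12D), knocked in by CRISPR. They were seeded overnight in DMEM/10% FCS, exposed to compound for 18 h at 37° C, then lysed for HiBit luminescence, normalised to DMSO. DC50 comes from a four-parameter logistic fit; Dmax is maximal degradation as % of control.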

NCI-H358 cells = test: NCI-H358 CTG proliferation assay (120 h) (NSCLC, G12C); details: Homo sapiens
Outline: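 NCI-H358 cells (KRAS G12C) were seeded at 2000/well (assay 1) or 200/well (assay 2) in RPMI-1640 + 10% FCS and dosed with a logarithmic series, DMSO-normalized. After 120 h, viability was read by CellTiter-Glo luminescence as percent of DMSO control, with a T0 read at dosing. IC50 came from a four-parameter fit.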

SK—CO-1 cells = test: SK-CO-1 CTG proliferation assay (120 h) (CRC, G12V); details: Homo sapiens, SK-CO-1 proliferation
Protocol: SK—CO-1 CTG Proliferation Assay (120 h) (CRC, G12V)
(§1) SK—CO-1 cells (ATCC HTB-39) are dispensed into 384-well plates, flat and clear bottom (Greiner, PNr. 781091) at a density of 500 cells per well in 60 μL EMEM (Sigma M5650)+10% Fetal Calf Serum (HyClone, PNr.: SH30084.03) and incubated at 37° C. in a CO2 incubator overnight. The next day, compounds (10 mM stock in DMSO) are added with the ECHO acoustic liquid handler system (Beckman Coulter), including DMSO controls. Plates are incubated for 120 h, and cell viability is measured using CellTiter-Glo luminescent cell viability reagent (Promega product code G7570). Viability (stated as percent of control) is defined as relative luminescence units RLU of each well divided by the RLU of cells in DMSO controls. IC50 values are determined from viability measurements by non-linear regression using a four-parameter model.

LOVO cells = test: LOVO CTG proliferation assay (120 h) (CRC, G13D); details: Homo sapiens
Protocol: LOVO CTG Proliferation Assay (120 h) (CRC, G13D)
as §1, with “LOVO” for “SK—CO-1”, “CCL-229)” for “HTB-39)”, “1000” for “500”, “DMEM” for “EMEM”, “D6429)+10%” for “M5650)+10%”

SW620 cells = test: SW620 cell proliferation assay (colorectal cancer, G12V), 5 days; details: Homo sapiens, SW-620, 120 h
Outline: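 SW620 cells (2000/well, DMEM with 10% FCS) exposed to a logarithmic compound dilution series for 5 days. Viability by CellTiter-Glo luminescence as percent of DMSO control; IC50 from a four-parameter logistic fit.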

[1] = assay 1, read-out: H358 (assay 1) IC50
[2] = assay 2, read-out: H358 (assay 2) IC50

T1 sequence (P01116 1-188 isoform P01116-2 G12D): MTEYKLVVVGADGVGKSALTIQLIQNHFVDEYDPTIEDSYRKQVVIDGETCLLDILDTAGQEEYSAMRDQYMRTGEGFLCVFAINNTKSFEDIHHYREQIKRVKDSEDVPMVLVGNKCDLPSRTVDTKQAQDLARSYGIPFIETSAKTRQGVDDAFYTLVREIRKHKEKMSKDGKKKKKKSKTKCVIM

| SMILES | DC50 (KRAS(G12D)) [nM] | Dmax 18 h (KRAS(G12D)) [% Ctrl] | pIC50 (NCI-H358 cells; [1]) | pIC50 (NCI-H358 cells; [2]) | pIC50 (SK—CO-1 cells) | pIC50 (LOVO cells) | pIC50 (SW620 cells) |
| --- | --- | --- | --- | --- | --- | --- | --- |
| Cc1ncsc1-c1ccc([C@@H](NC(=O)[C@@H]2C[C@@H](O)CN2C(=O)[C@H](C(C)C)n2cc(OCCCCN3CCCN(c4nccc(-c5noc([C@@]6(C)CCCc7sc(N)c(C#N)c76)n5)n4)[C@@H](C)C3)nn2)[C@H](C)O)cc1 (single isomer, unassigned) [I-41] | 1.6 | 94 | 7.22 | 7.83 | 7.65 | 7.53 | 7.98 |
| Cc1ncsc1-c1ccc([C@@H](NC(=O)[C@@H]2C[C@@H](O)CN2C(=O)[C@H](C(C)C)n2cc(OCCCN3CCCN(c4nccc(-c5noc([C@@]6(C)CCCc7sc(N)c(C#N)c76)n5)n4)[C@@H](C)C3)nn2)[C@H](O)C(C)C)cc1 (single isomer, unassigned) [I-43] | 1.2 | 93 | 7.29 | 8.09 | 7.58 | 7.65 | 8.03 |
| Cc1ncsc1-c1ccc([C@@H](NC(=O)[C@@H]2C[C@@H](O)CN2C(=O)[C@H](C(C)C)n2cc(OCCCCN3CCCN(c4nccc(-c5noc([C@@]6(C)CCCc7sc(N)c(C#N)c76)n5)n4)[C@@H](C)C3)nn2)[C@H](O)C(C)C)cc1 (single isomer, unassigned) [I-45] | 1.4 | 93 | 7.01 | 7.87 | 7.48 | 7.37 | 7.84 |
| Cc1ncsc1-c1ccc([C@H](C)NC(=O)[C@@H]2C[C@@H](O)CN2C(=O)C(C(C)C)n2cc(OCCCCN3CCCN(c4nccc(-c5noc([C@@]6(C)CCCc7sc(N)c(C#N)c76)n5)n4)[C@@H](C)C3)nn2)cc1 (stereo partly drawn) [I-28] | 1.5 | 93 | 7.49 | 7.09 | 7.35 | 6.19 | 7.88 |
| Cc1ncsc1-c1ccc([C@H](CO)NC(=O)[C@@H]2C[C@@H](O)CN2C(=O)[C@H](C(C)C)n2cc(OCCCCN3CCCN(c4nccc(-c5noc([C@@]6(C)CCCc7sc(N)c(C#N)c76)n5)n4)[C@@H](C)C3)nn2)cc1 [I-29] | 2 | 93 | 7.54 |  | 7.61 | 7.36 | 7.58 |
| Cc1ncsc1-c1ccc([C@H](CO)NC(=O)[C@@H]2C[C@@H](O)CN2C(=O)[C@H](C(C)C)n2cc(OCCCC(C)N3CCCN(c4nccc(-c5noc([C@@]6(C)CCCc7sc(N)c(C#N)c76)n5)n4)[C@@H](C)C3)nn2)cc1 (stereo partly drawn) [I-30] | 1.4 | 94 | 7.53 |  | 7.53 | 7.06 | 7.74 |
| Cc1ncsc1-c1ccc([C@H](CO)NC(=O)[C@@H]2C[C@@H](O)CN2C(=O)[C@H](C(C)C)n2cc(OC(C)CCCN3CCCN(c4nccc(-c5noc([C@@]6(C)CCCc7sc(N)c(C#N)c76)n5)n4)[C@@H](C)C3)nn2)cc1 (stereo partly drawn) [I-31] | 4.4 | 93 | 6.80 |  | 6.88 | 6.46 | 7.21 |
| Cc1ncsc1-c1ccc([C@H](CCO)NC(=O)[C@@H]2C[C@@H](O)CN2C(=O)[C@H](C(C)C)n2cc(OCCCCN3CCCN(c4nccc(-c5noc([C@@]6(C)CCCc7sc(N)c(C#N)c76)n5)n4)[C@@H](C)C3)nn2)cc1 [I-38] | 3.3 | 93 | 7.01 |  | 6.93 | 6.22 | 7.55 |

Now from value to compound:

| DC50 (KRAS(G12D)) [nM] | Dmax 18 h (KRAS(G12D)) [% Ctrl] | pIC50 (NCI-H358 cells; [1]) | pIC50 (NCI-H358 cells; [2]) | pIC50 (SK—CO-1 cells) | pIC50 (LOVO cells) | pIC50 (SW620 cells) | SMILES |
| --- | --- | --- | --- | --- | --- | --- | --- |
| 200 | 81 | 5.97 | 5.84 | 5.65 | 5.71 | 6.10 | Cc1ncsc1-c1ccc(CNC(=O)[C@@H]2C[C@@H](O)CN2C(=O)[C@H](c2cc(OCCCN3CCCN(c4nccc(-c5noc([C@@]6(C)CCCc7sc(N)c(C#N)c76)n5)n4)[C@@H](C)C3)no2)C(C)C)cc1 (single isomer, unassigned) [I-24] |
| 2.3 | 94 | 7.34 | 7.19 | 7.24 | 7.27 | 8.01 | Cc1ncsc1-c1ccc(CNC(=O)[C@@H]2C[C@@H](O)CN2C(=O)[C@@H](c2cc(OCCCN3CCCN(c4nccc(-c5noc([C@@]6(C)CCCc7sc(N)c(C#N)c76)n5)n4)[C@@H](C)C3)no2)C(C)C)cc1 (single isomer, unassigned) [I-25] |
| 2.9 | 93 | 7.22 | 7.45 | 7.29 | 7.39 | 7.83 | Cc1ncsc1-c1ccc(CNC(=O)[C@@H]2C[C@@H](O)CN2C(=O)[C@@H](c2cc(OCCCCN3CCCN(c4nccc(-c5noc([C@@]6(C)CCCc7sc(N)c(C#N)c76)n5)n4)[C@@H](C)C3)no2)C(C)C)cc1 (single isomer, unassigned) [I-27] |
| 4.3 | 94 | 6.35 | 6.71 | 6.68 | 6.37 | 7.27 | Cc1ncsc1-c1ccc(CNC(=O)[C@@H]2C[C@@H](O)CN2C(=O)C(c2cc(OCCCCN3CCCN(c4nccc(-c5cc([C@@]6(C)CCCc7sc(N)c(C#N)c76)on5)n4)[C@@H](C)C3)no2)C(C)C)cc1 (stereo partly drawn) [I-4] |
| 3.9 | 91 | 6.64 | 7.07 | 6.74 | 5.74 | 7.43 | CC(C)C(C(=O)N1C[C@H](O)C[C@H]1C(=O)NCc1ccc(C#N)cc1)c1cc(OCCCCN2CCCN(c3nccc(-c4noc([C@@]5(C)CCCc6sc(N)c(C#N)c65)n4)n3)[C@@H](C)C2)no1 (stereo partly drawn) [I-16] |
